From the supplement of paper PMC10307832

Columns and labels:
Experiment in all cases: relative viability (nuclei count vs DMSO), 5 days (fraction); higher = more cells survive
[1] = tested on: IA-LM
Summary of the method: (§1)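 Lung cancer cell lines in 1536-well plates got either a single drug or a fixed anchor-drug dose together with five library-drug doses (not always all listed) in √10 steps, by pin tool, on the day after seeding. Nuclei were counted after 5 days, and relative viability is the treated-to-vehicle ratio of nuclei counts. Values are medians of duplicate plates.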

[2] = tested on: NCI-H1975
Summary of the method: as §1

[3] = tested on: HOP-62
Summary of the method: as §1

[4] = tested on: SK-MES-1
Summary of the method: as §1

[5] = tested on: NCI-H520
Summary of the method: as §1

[6] = tested on: NCI-H2009
Summary of the method: as §1

[7] = tested on: COR-L 105
Summary of the method: as §1

[8] = tested on: NCI-H1650
Summary of the method: as §1

[9] = tested on: COR-L23
Summary of the method: as §1

[10] = tested on: EPLC-272H
Summary of the method: as §1

[11] = tested on: LK-2
Summary of the method: as §1

[12] = tested on: NCI-H2347
Summary of the method: as §1

[13] = tested on: A549
Summary of the method: as §1

[14] = tested on: HCC-44
Summary of the method: as §1

[15] = tested on: NCI-H647
Summary of the method: as §1

[16] = tested on: NCI-H1299
Summary of the method: as §1

[17] = tested on: HCC-78
Summary of the method: as §1

[18] = tested on: NCI-H358
Summary of the method: as §1

[19] = tested on: NCI-H460
Summary of the method: as §1

[20] = tested on: A-427
Summary of the method: as §1

[21] = tested on: NCI-H1792
Summary of the method: as §1

[22] = tested on: EKVX
Summary of the method: as §1

[23] = tested on: HCC-366
Summary of the method: as §1

[24] = tested on: NCI-H1437
Summary of the method: as §1

`Nc1cccc2c1CN(C1CCC(=O)NC1=O)C2=O` (stereo not drawn) [Lenalidomide] + C[C@@H](Oc1cc(-c2cnn(C3CCNCC3)c2)cnc1N)c1c(Cl)ccc(F)c1Cl [Crizotinib] (partner 1 µM) was tested, and the relative viability ([1]; first compound 0.253 µM) was 0.833, the relative viability ([1]; first compound 0.8 µM) was 0.753 and the relative viability ([1]; first compound 2.53 µM) was 0.759. It also gave a relative viability ([1]; first compound 8 µM) of 0.756, a relative viability ([2]; first compound 0.253 µM) of 1.03 and a relative viability ([2]; first compound 0.8 µM) of 0.984. It also gave a relative viability ([2]; first compound 2.53 µM) of 1.15, a relative viability ([2]; first compound 8 µM) of 1.01 and a relative viability ([3]; first compound 0.253 µM) of 0.859. It also gave a relative viability ([3]; first compound 0.8 µM) of 0.507, a relative viability ([3]; first compound 2.53 µM) of 0.938 and a relative viability ([3]; first compound 8 µM) of 0.74. For the same compound, the relative viability ([4]; first compound 0.253 µM) was 1, the relative viability ([4]; first compound 0.8 µM) was 1.04 and the relative viability ([4]; first compound 2.53 µM) was 0.972. The relative viability ([4]; first compound 8 µM) was 0.974, the relative viability ([5]; first compound 0.253 µM) was 0.794 and the relative viability ([5]; first compound 0.8 µM) was 0.777. For the same compound, the relative viability ([5]; first compound 2.53 µM) was 0.857, the relative viability ([5]; first compound 8 µM) was 0.752 and the relative viability ([6]; first compound 0.253 µM) was 1.07. It also gave a relative viability ([6]; first compound 0.8 µM) of 1.03, a relative viability ([6]; first compound 2.53 µM) of 1.12 and a relative viability ([6]; first compound 8 µM) of 1.1. It also gave a relative viability ([7]; first compound 0.253 µM) of 0.905, a relative viability ([7]; first compound 0.8 µM) of 0.716 and a relative viability ([7]; first compound 2.53 µM) of 0.986. For the same compound, the relative viability ([7]; first compound 8 µM) was 1.12, the relative viability ([8]; first compound 0.253 µM) was 0.922 and the relative viability ([8]; first compound 0.8 µM) was 1.03. For the same compound, the relative viability ([8]; first compound 2.53 µM) was 1.11, the relative viability ([8]; first compound 8 µM) was 1.17 and the relative viability ([9]; first compound 0.253 µM) was 0.656. The relative viability ([9]; first compound 0.8 µM) was 0.634, the relative viability ([9]; first compound 2.53 µM) was 0.718 and the relative viability ([9]; first compound 8 µM) was 0.82. The relative viability ([10]; first compound 0.253 µM) was 0.838, the relative viability ([10]; first compound 2.53 µM) was 0.802 and the relative viability ([10]; first compound 8 µM) was 0.8. It also gave a relative viability ([11]; first compound 0.253 µM) of 0.229, a relative viability ([11]; first compound 2.53 µM) of 0.216 and a relative viability ([11]; first compound 8 µM) of 0.256. The relative viability ([12]; first compound 0.253 µM) was 0.779, the relative viability ([12]; first compound 0.8 µM) was 0.674 and the relative viability ([12]; first compound 2.53 µM) was 0.83. For the same compound, the relative viability ([12]; first compound 8 µM) was 0.573, the relative viability ([13]; first compound 0.253 µM) was 0.777 and the relative viability ([13]; first compound 0.8 µM) was 0.835. It also gave a relative viability ([13]; first compound 2.53 µM) of 0.745, a relative viability ([13]; first compound 8 µM) of 0.902 and a relative viability ([14]; first compound 0.253 µM) of 0.823. For the same compound, the relative viability ([14]; first compound 0.8 µM) was 0.663, the relative viability ([14]; first compound 2.53 µM) was 0.857 and the relative viability ([14]; first compound 8 µM) was 0.832. For the same compound, the relative viability ([15]; first compound 0.253 µM) was 1.08, the relative viability ([15]; first compound 0.8 µM) was 1.04 and the relative viability ([15]; first compound 2.53 µM) was 1.22. It also gave a relative viability ([15]; first compound 8 µM) of 1.14, a relative viability ([16]; first compound 0.253 µM) of 0.978 and a relative viability ([16]; first compound 0.8 µM) of 1. It also gave a relative viability ([16]; first compound 2.53 µM) of 1.01, a relative viability ([16]; first compound 8 µM) of 0.977 and a relative viability ([17]; first compound 0.253 µM) of 0.304. The relative viability ([17]; first compound 0.8 µM) was 0.31, the relative viability ([17]; first compound 2.53 µM) was 0.351 and the relative viability ([17]; first compound 8 µM) was 0.3. It also gave a relative viability ([18]; first compound 0.253 µM) of 0.667, a relative viability ([18]; first compound 0.8 µM) of 0.592 and a relative viability ([18]; first compound 2.53 µM) of 0.541. The relative viability ([18]; first compound 8 µM) was 0.712, the relative viability ([19]; first compound 0.253 µM) was 0.807 and the relative viability ([19]; first compound 0.8 µM) was 1.06. It also gave a relative viability ([19]; first compound 2.53 µM) of 1.01, a relative viability ([19]; first compound 8 µM) of 0.929 and a relative viability ([20]; first compound 0.253 µM) of 0.833. The relative viability ([20]; first compound 2.53 µM) was 0.891, the relative viability ([20]; first compound 8 µM) was 0.903 and the relative viability ([21]; first compound 0.253 µM) was 1.04. It also gave a relative viability ([21]; first compound 0.8 µM) of 0.795, a relative viability ([21]; first compound 2.53 µM) of 1.12 and a relative viability ([21]; first compound 8 µM) of 0.96. For the same compound, the relative viability ([22]; first compound 0.253 µM) was 0.978, the relative viability ([22]; first compound 0.8 µM) was 1.05 and the relative viability ([22]; first compound 2.53 µM) was 1.09. The relative viability ([22]; first compound 8 µM) was 0.998, the relative viability ([23]; first compound 0.253 µM) was 0.56 and the relative viability ([23]; first compound 0.8 µM) was 0.499. The relative viability ([23]; first compound 2.53 µM) was 0.465, the relative viability ([23]; first compound 8 µM) was 0.499 and the relative viability ([24]; first compound 0.253 µM) was 1.01. The relative viability ([24]; first compound 0.8 µM) was 0.917, the relative viability ([24]; first compound 2.53 µM) was 1.02 and the relative viability ([24]; first compound 8 µM) was 0.938.
